Peptide text beside a SMILES is read from it.
Columns and labels:
[1] = molecular target: T1, HLA A*2402 (Homo sapiens, UniProt P04439, D101N/D140Y/D185E/E176V/E190D/F33S/G103R/G107R/I119L/I121M/I306V/K335N/L105A/L180Q/L300P/N151K/N90K/Q86E/Q94H/R106L/R138H/R89G/T104I/T345S/V100E/W191G/Y123F); assay: In vitro class I HLA binding competition assay (fluorescence polarization); conditions: allele A2402; cell-free competition with fluorescently labeled control peptide, fluorescence polarization at 72 hours
T1 construct: Pure Protein, LLC (ran the assay)
Method: The cell-free class I HLA binding assay in use at Pure Protein, LLC allows for in vitro quantification of peptide-HLA binding affinity in a competition format. In this assay, a fluorescently labeled, high binding, control peptide is loaded onto 384-well ½-area plates along with unlabeled experimental peptides. To remove endogenous peptides and render the HLA A and B molecules receptive to binding, HLA is heated at 53°C for 15 minutes and immediately added to the assay. The mixture is then allowed to stand for three days. […] Binding of experimental peptides is expressed as the percent inhibition of the labeled control peptide (experimental fluorescence / control fluorescence, multiplied by 100). The percent inhibition values for each experimental peptide (across a range of molar concentrations) are used to calculate the concentration which inhibits 50% of the labeled control peptide’s specific binding. This value is referred to as the peptide’s IC50.

[2] = molecular target: T2, HLA A*0201 (Homo sapiens, UniProt P04439, D140Y/D185E/D98H/E176V/E277Q/G131W/G231S/I119V/I121R/I166T/I218V/L300P/L318F/N151K/N90K/P208A/P217A/Q86G/Q94H/R138H/R169H/T345S); assay: biochemical; format: binding
T2 construct: Pure Protein, LLC (ran the assay)

[3] = molecular target: T3, HLA B*0702 (Homo sapiens, UniProt P01889); assay: biochemical; format: binding
T3 construct: Pure Protein, LLC (ran the assay)

[4] = molecular target: HLA B*4402 (Homo sapiens, UniProt P01889, A223V/A65T/A93T/A95T/D201E/D98Y/E176V/E187L/E204Q/E69K/G107R/H137Y/K202T/L105A/L119I/N104T/N87E/Q56L/Q94N/R106L/R155S/R180D/S101N/S121R/S35A/S48T/T118I/V36M/W191S/Y140D/Y91S); assay: In vitro class I HLA binding competition assay (fluorescence polarization); conditions: allele B4402; cell-free competition with fluorescently labeled control peptide, fluorescence polarization at 72 hours
Method: The cell-free class I HLA binding assay in use at Pure Protein, LLC allows for in vitro quantification of peptide-HLA binding affinity in a competition format. In this assay, a fluorescently labeled, high binding, control peptide is loaded onto 384-well ½-area plates along with unlabeled experimental peptides. To remove endogenous peptides and render the HLA A and B molecules receptive to binding, HLA is heated at 53°C for 15 minutes and immediately added to the assay. The mixture is then allowed to stand for three days. Once the mixture has reached steady equilibrium (at 72 hours), displacement of the high binding control peptide is measured through Fluorescence Polarization. Binding of experimental peptides is expressed as the percent inhibition of the labeled control peptide (experimental fluorescence / control fluorescence, multiplied by 100). The percent inhibition values for each experimental peptide (across a range of molar concentrations) are used to calculate the concentration which inhibits 50% of the labeled control peptide’s specific binding. This value is referred to as the peptide’s IC50.

| Structure (SMILES) | IC50 [1] [µM] | IC50 [2] [µM] | IC50 [3] [µM] | IC50 [4] [µM] |
| --- | --- | --- | --- | --- |
| CC[C@H](C)[C@H](NC(=O)[C@@H](N)CC(C)C)C(=O)N[C@@H](CCSC)C(=O)N[C@H](C(=O)N[C@@H](CC(C)C)C(=O)N[C@@H](CO)C(=O)N[C@@H](Cc1ccccc1)C(=O)N[C@@H](CC(C)C)C(=O)N[C@@H](Cc1ccccc1)C(=O)O)C(C)C [Cluster 387_3D7] (H-LIMVLSFLF-OH) | 19.3 | – | – | – |
| CC[C@H](C)[C@H](NC(=O)[C@H](CCCCN)NC(=O)[C@H](CCCCN)NC(=O)[C@H](CC(C)C)NC(=O)[C@@H](N)Cc1ccc(O)cc1)C(=O)N[C@@H](CCC(N)=O)C(=O)N[C@@H](CC(N)=O)C(=O)N[C@@H](CO)C(=O)N[C@@H](CC(C)C)C(=O)O [Cluster 319_ICS2] (H-YLKKIQNSL-OH) | 11.2 | 2.18 | 9.2 | – |
| CC[C@H](C)[C@H](NC(=O)[C@H](CO)NC(=O)[C@H](CO)NC(=O)[C@H](CC(N)=O)NC(=O)[C@@H](NC(=O)[C@@H](NC(=O)[C@H](CC(N)=O)NC(=O)[C@H](Cc1ccccc1)NC(=O)[C@@H](N)C(C)C)C(C)C)C(C)C)C(=O)O [Cluster 377_3D7] (H-VFNVVNSSI-OH) | 11.6 | – | – | – |
| CC[C@H](C)[C@H](N)C(=O)N[C@@H](CCC(N)=O)C(=O)N[C@@H](CC(N)=O)C(=O)N[C@@H](CO)C(=O)N[C@@H](CC(C)C)C(=O)N[C@@H](CO)C(=O)N[C@H](C(=O)N[C@@H](CCC(=O)O)C(=O)N[C@@H](Cc1c[nH]c2ccccc12)C(=O)O)[C@@H](C)O [Cluster 323_3D7] (H-IQNSLSTEW-OH) | 21.3 | – | – | 136 |
